Source: patent US20220193076A1, “METHODS OF TREATING BREAST CANCER WITH TUCATINIB” (Seagen Inc., priority 2019, published 2022)

Assays:
CYP3A4 = assay: In vitro enzyme activity / mRNA induction in human hepatocytes; type: in vitro ADME
P-glycoprotein (P-gp) = P-glycoprotein (P-gp) (Homo sapiens, UniProt P08183); assay: P-gp substrate assessment and inhibition of P-gp-mediated efflux of digoxin; type: in vitro ADME
[1] = Example 2 Part E: single- and multiple-dose PK of tucatinib and ONT-993; type: in vivo, human; conditions: tucatinib 300 mg BID, Day 14 vs Day 8
CYP2C8 [2] = target: T1, CYP2C8 (Homo sapiens, UniProt P10632); assay: Example 2 Part C: effect of strong CYP2C8 inhibitor gemfibrozil on PK of tucatinib; type: in vivo; parameters: endogenous in cells; host or cells: healthy human subjects, in vivo; conditions: tucatinib 300 mg single dose in combination with gemfibrozil vs tucatinib alone
T1 sequence (P10632 1-490): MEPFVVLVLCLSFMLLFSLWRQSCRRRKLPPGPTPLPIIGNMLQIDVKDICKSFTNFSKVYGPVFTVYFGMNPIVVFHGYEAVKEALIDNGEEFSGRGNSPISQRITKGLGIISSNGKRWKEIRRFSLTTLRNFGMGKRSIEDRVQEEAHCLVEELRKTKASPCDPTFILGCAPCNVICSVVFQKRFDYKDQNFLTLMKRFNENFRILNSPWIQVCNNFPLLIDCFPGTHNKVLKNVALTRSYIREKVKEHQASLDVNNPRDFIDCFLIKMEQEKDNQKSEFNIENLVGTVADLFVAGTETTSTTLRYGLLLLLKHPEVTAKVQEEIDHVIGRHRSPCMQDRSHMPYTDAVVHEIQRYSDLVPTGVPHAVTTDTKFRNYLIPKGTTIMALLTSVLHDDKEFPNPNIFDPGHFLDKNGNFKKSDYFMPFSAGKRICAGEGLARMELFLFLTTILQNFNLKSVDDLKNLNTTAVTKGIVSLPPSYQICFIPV
Description: From Day 3 to Day 8, each subject received single oral doses of 600 mg of gemfibrozil (BID), twice daily (BID). On Day 7, each subject received a single oral dose of 300 mg of tucatinib. […] Other noncompartmental PK parameters may be reported. Additionally, blood samples were collected for determination of trough levels of gemfibrozil prior to morning dosing on the days indicated in FIG. 7.

CYP2C8 [3] = target: T1, CYP2C8; assay: Example 2 Part D: effect of tucatinib on PK of substrate probe repaglinide; type: in vivo; parameters: endogenous in cells; host or cells: healthy human subjects, in vivo; conditions: steady-state tucatinib 300 mg BID, probe repaglinide
Description: A Phase 1, open-label, fixed-sequence, 5-part, drug-drug interaction study of tucatinib was conducted to evaluate the effects of CYP3A4 and CYP2C8 inhibition and induction on the pharmacokinetics of tucatinib and to evaluate the effects of tucatinib on the pharmacokinetics of substrates of CYP3A4, CYP2C8, CYP2C9, and P-glycoprotein in healthy male and female subjects.
Part B evaluates the effect of rifampin, a strong inducer of CYP3A4 and CYP2C8, on the PK of tucatinib. […] Part E evaluates the effect of tucatinib on the PK of a substrate probe of the transporter P-gp (digoxin). […] For Parts A, B, and C, tucatinib is given as a single oral dose because evaluating plasma exposures after a single dose of tucatinib is expected to provide an appropriate assessment of the impact of the probe drugs on tucatinib PK. In Parts D and E, tucatinib is given as a multiple-dosing regimen in order to examine its effects on probe drugs at steady state, at which maximal inhibition of CYP2C8, CYP2C9, CYP3A4, and P-gp by tucatinib should be achieved.
Secondary objectives of the study included: (1) assessing the safety and tolerability of tucatinib when administered alone and when co-administered with substrate probes of CYP2C8, CYP2C9, and CYP3A4; and (2) assessing the single-dose PK of tucatinib and assessing the multiple-dose, steady-state PK of tucatinib alone and in the presence of substrate probes of CYP2C8, CYP2C9, and CYP3A4 in healthy subjects.
They were discharged on Day 14 after completion of the in-patient assessments.
On Day 1, each subject received a single oral dose of 0.5 mg of repaglinide. […] From Day 4 to Day 13, each subject received oral doses of 300 mg of tucatinib, twice daily (BID). On Day 11, each subject received a single oral dose of repaglinide. […] Tucatinib was provided as 150-mg tablets (2 tablets for the 300-mg dose), repaglinide was provided as 0.5-mg tablets, olbutamide was provided as 500-mg tablets, and midazolam was provided as a syrup (2 mg/mL; 1 mL syrup for the 2-mg dose). Tucatinib, repaglinide, olbutamide and midazolam were administered before meals preceded by an at least 8-hour overnight fast.
Other noncompartmental PK parameters may be reported. Additionally, blood samples for determination of plasma concentrations of tucatinib and ONT-993 were collected at the time points indicated in FIG. 8. […] A single genotyping blood sample was collected to assess possible effect of CYP polymorphisms or other genetic polymorphisms on the magnitude of drug interactions of tucatinib with probe drugs and substrates.

P-glycoprotein (P-gp), sequence (P08183 whole entry): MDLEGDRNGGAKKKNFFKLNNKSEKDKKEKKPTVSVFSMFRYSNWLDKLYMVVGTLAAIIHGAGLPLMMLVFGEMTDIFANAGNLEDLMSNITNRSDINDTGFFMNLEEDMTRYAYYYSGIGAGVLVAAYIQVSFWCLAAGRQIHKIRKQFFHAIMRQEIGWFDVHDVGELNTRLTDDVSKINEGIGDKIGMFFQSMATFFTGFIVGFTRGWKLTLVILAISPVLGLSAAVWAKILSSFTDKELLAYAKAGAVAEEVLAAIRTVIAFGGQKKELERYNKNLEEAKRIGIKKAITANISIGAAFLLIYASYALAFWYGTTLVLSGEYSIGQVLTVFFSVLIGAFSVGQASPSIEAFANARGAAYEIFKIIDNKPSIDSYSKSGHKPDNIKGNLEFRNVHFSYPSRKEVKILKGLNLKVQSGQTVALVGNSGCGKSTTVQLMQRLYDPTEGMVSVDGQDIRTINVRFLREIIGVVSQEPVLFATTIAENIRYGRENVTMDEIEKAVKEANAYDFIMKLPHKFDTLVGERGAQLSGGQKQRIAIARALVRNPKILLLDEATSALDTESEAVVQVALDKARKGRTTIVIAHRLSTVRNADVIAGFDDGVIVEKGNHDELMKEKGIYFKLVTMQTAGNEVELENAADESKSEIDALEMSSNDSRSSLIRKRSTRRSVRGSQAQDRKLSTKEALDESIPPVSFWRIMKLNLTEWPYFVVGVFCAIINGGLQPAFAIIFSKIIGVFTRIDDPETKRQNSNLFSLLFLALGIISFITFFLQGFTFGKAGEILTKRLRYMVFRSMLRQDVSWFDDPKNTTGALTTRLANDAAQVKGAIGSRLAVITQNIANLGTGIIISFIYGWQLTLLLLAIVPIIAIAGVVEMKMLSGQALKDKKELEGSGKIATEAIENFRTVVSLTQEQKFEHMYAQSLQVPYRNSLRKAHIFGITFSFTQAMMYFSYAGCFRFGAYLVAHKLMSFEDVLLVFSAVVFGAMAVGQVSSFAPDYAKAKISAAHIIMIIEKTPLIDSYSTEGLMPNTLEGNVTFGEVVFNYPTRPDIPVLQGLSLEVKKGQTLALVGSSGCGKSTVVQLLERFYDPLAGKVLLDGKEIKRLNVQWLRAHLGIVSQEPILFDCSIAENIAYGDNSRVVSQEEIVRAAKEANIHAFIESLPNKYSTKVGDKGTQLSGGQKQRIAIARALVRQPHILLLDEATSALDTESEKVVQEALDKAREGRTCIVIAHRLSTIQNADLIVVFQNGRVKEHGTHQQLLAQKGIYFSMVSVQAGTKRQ

Cc1cc(Nc2ncnc3ccc(NC4=NC(C)(C)CO4)cc23)ccc1Oc1ccn2ncnc2c1 [tucatinib]
Induction of in vitro enzyme activity or messenger ribonucleic acid, CYP3A4 (CYP3A4): did not induce | IC50 (P-glycoprotein (P-gp)): 10 to 30 µM | P-gp substrate status (P-glycoprotein (P-gp)): P-glycoprotein (P-gp) substrate | Rac (accumulation ratio) after multiple dosing [1]: 1.50 | Geometric LS mean ratio (90% CI), AUC0-∞ (CYP2C8 [2]): 3.04 (2.66, 3.46) | Geometric LS mean ratio (90% CI), AUClast (CYP2C8 [2]): 2.99 (2.62, 3.41) | Geometric LS mean ratio (90% CI), Cmax (CYP2C8 [2]): 1.62 (1.47, 1.79) | Inhibition of CYP2C8 in vivo (CYP2C8 [3]): weak inhibitor
